The text below walks through data of patent US8263591B2, “Bicyclic amides for enhancing glutamatergic synaptic responses” (Cortex Pharmaceuticals, Inc., priority 2007, dated 2012).

The subject of data set [1] is AMPA receptor. Description: In vivo electrophysiology: amplitude of field EPSP in dentate gyrus of anesthetized animals. On the procedure: (§1) The electrophysiological effects of the invention compounds were tested in vivo in anesthetized animals according to the following procedures. Animals are maintained under anesthesia by phenobarbital administered using a Hamilton syringe pump. Stimulating and recording electrodes are inserted into the perforant path and dentate gyrus of the hippocampus, respectively. Once electrodes are implanted, a stable baseline of evoked responses are elicited using single monophasic pulses (100 μs pulse duration) delivered at 3/min to the stimulating electrode. Field EPSPs are monitored until a stable baseline is achieved (about 20-30 min), after which a solution of test compound is injected intraperitoneally and evoked field potentials are recorded. Evoked potentials were recorded for approximately 2 h following drug administration or until the amplitude of the field EPSP returns to baseline. In the latter instance, it is common that an iv administration is also carried out with an appropriate dose of the same test compound. Invention compounds were assayed in the in vivo electrophysiology assay described above and data for representative test compounds is shown in column 1 in Table 1.
The electrophysiological effects of invention compounds were tested in vivo in anesthetized animals according to the following procedures.
as §1, with “Animals” for “The electrophysiological effects of the invention compounds were tested in vivo in anesthetized animals according to the following procedures. Animals”, “are” for “were”, “compound.” for “compound. Invention compounds were assayed in the in vivo electrophysiology assay described above and data for representative test compounds is shown in column 1 in Table 1.”

Data set [2] relates to Male CD1 mice. In words: Inhibition of d-Amphetamine stimulated locomotion. In kind it is in vivo. As to conditions: 18 mpk i.p., d-amphetamine 2 mg/kg. On the procedure: The ability of the invention compounds to inhibit d-Amphetamine stimulated locomotor activity was assayed according to the following procedure. Male CD1 mice, 25-30 gm body o weight, were brought into the experimental room and allowed at least 30 min of acclamation.
Each mouse was placed into the testing enclosure with an infrared beam array that automatically monitors the animal's activity. Mice were habituated in the testing enclosure for 20 min, and then returned to their home cage. Mice were dosed intraperitoneally with test compound in appropriate vehicle 5 minutes before d-Amphetamine injection (2 mpk). Ten minutes after d-Amphetamine injection, mice were tested for locomotor activity for a total of 15 minutes. The data was computer collected and expressed as “arbitrary movement units.” All data were analyzed by comparing the groups treated with the test compound to the vehicle control group. The data shown is the % inhibition of hyperactivity induced by acute administration of 2 mg/kg d-amphetamine in mice. […]
Male CD1 mice, 25-30 gm body weight, were brought into the experimental room and allowed at least 30 min of acclamation. […] The data was computer collected and expressed as “arbitrary movement units.” All data were analyzed by comparing the groups treated with the test compound to the vehicle control group.

SMILES strings stand for the structures.

Regarding `O=C(c1ccc2nonc2c1)N1C2CCC1CC2`, the melting point – broadly, the temperature, or range, at which the solid turns liquid – was 143 to 144 °C.

Turning to `O=C(c1ccc2nonc2c1)N1C2CCC1CC(O)C2` (stereo not drawn) [5], the melting point fell in the range of 169 to 171 °C.

On to `O=C(c1ccc2nonc2c1)N1C2CCC1CC(O)C2` (stereo not drawn) [6], for which the melting point fell in the range of 176 to 177 °C.

The compound `O=C(c1ccc2nonc2c1)N1C2CCCC1CC2` [Example 1, 8-Azabicyclo[3.2.1]oct-8-yl([2,1,3]-benzoxadiazol-5-yl)methanone] registered a melting point of 128 to 130 °C. Also, the “% increase in the amplitude of the field EPSP in the dentate gyrus of rat” value (shortened to “% increase in the amplitude”) in data set [1] (10 mpk i.p.) is reported as 22%. In addition, in data set [2], the “% Inhibition of d-amphetamine stimulated locomotion” value is 69%.

In the case of `O=C1CC2CCC(C1)N2C(=O)c1ccc2nonc2c1` [Example 2, 8-([2,1,3]-Benzoxadiazol-5-ylcarbonyl)-8-azabicyclo[3.2.1]octan-3-one], the melting point was in the range of 164 to 166 °C. Besides, in data set [1] (10 mpk i.p.), the “% increase in the amplitude” value is recorded as 16%. The “% Inhibition of d-amphetamine stimulated locomotion” value in data set [2] was found to be 40%.

The compound `O=C(c1ccc2nonc2c1)N1C2CCC1CC(F)(F)C2` [Example 3, [2,1,3]-Benzoxadiazol-5-yl(3,3-difluoro-8-azabicyclo[3.2.1]oct-8-yl)methanone] yielded a melting point of 165 to 166 °C. The “% increase in the amplitude” value in data set [1] (10 mpk i.p.) is reported as 8%.

On to `O=C(c1ccc2nonc2c1)N1C2C=C(F)CC1CC2` (stereo not drawn) [Example 4, [2,1,3]-benzoxadiazol-5-yl(3-fluoro-8-azabicyclo[3.2.1]oct-2-en-8-yl)methanone], for which, in data set [1] (10 mpk i.p.), the “% increase in the amplitude” value stood at 25%.

As for `O=C(c1ccc2nonc2c1)N1CC2CCC1C2` (stereo not drawn) [Example 7, 2-Azabicyclo[2.2.1]hept-2-yl([2,1,3]-benzoxadiazol-5-yl)methanone], the melting point was 92 to 93 °C. Moreover, the “% increase in the amplitude” value in data set [1] (dosed i.v.) is 20%^3.

`O=C(c1ccc2nonc2c1)N1CC2CCC1CC2` [Example 9, 2-Azabicyclo[2.2.2]oct-2-yl([2,1,3]-benzoxadiazol-5-yl)methanone] returned a melting point of 138 to 139 °C.

Compound `O=C(c1ccc2nonc2c1)N1CC2CC1CO2` (stereo not drawn) [Example 10, [2,1,3]-benzoxadiazol-5-yl(2-oxa-5azabicyclo[2.2.1]hept-5-yl)methanone] yielded a melting point of 102 to 104 °C.

`O=C(c1ccc2nonc2c1)N1CC2C=CC1C2` (stereo not drawn) [Example 11, 2-Azabicyclo[2.2.1]hept-5-en-2-yl([2,1,3]-benzoxadiazol-5-yl)methanone] registered a melting point of 106 to 108 °C.

Take `O=C(c1ccc2nonc2c1)N1CC2CC1C(Cl)C2Cl` (stereo not drawn) [Example 14, [2,1,3]-Benzoxadiazol-5-yl(5,6-dichloro-2-azabicyclo[2.2.1]hept-2-yl)methanone]: the melting point was in the range of 156 to 157 °C.
